Data from patent US10342758B2, “Cationic lipid” (Kyowa Hakko Kirin Co., Ltd., priority 2012, dated 2019).

Assay: Average particle diameter of preparation (Zetasizer Nano ZS)
Assay type: physicochemical
Conditions: preparation with f7 siRNA
Description: The average particle diameter of each preparation (composition) was measured using a particle diameter measurement device (Zetasizer Nano ZS, manufactured by Malvern, hereafter the same).
The average particle diameter of each preparation (composition) was measured using a particle diameter measurement device.
Each sample was weighed and suspended in an aqueous solution containing hydrochloric acid and ethanol so that the ratio of Compound A-1/PEG-DMPE Na (manufactured by NOF Corporation) was 57.3/5.52 mmol/L, and then, the resulting mixture was repeatedly subjected to stirring using a vortex stirring mixer and heating, whereby a uniform suspension was obtained. This suspension was passed through a 0.2-μm polycarbonate membrane filter and thereafter passed through a 0.05-μm polycarbonate membrane filter at room temperature, whereby a dispersion liquid of particles (liposome) of Compound A-1/PEG-DMPE Na was obtained. The average particle diameter of the obtained liposome was measured using a particle diameter measuring apparatus to confirm that the average particle diameter was within the range from 30 nm to 100 nm. In the obtained dispersion liquid of liposome, the f7 siRNA solution was mixed at a ratio of the dispersion liquid of liposome to the fl siRNA solution of 3:1, and then, distilled water that was three times the amount was added thereto and mixed therewith, whereby a dispersion liquid of Compound A-1/PEG-DMPE Na/f7 siRNA complex was prepared.
The average particle diameter of the preparation (composition) was measured using a particle diameter measurement device.

[1] = compound/PEG-DMPE Na/DSPC/cholesterol, Examples 50, 51 / Comparative Example 2
[2] = liposome/siRNA complex encapsulated by lipid membrane, Examples 52, 53 / Comparative Example 3

Particle diameter of Preparation obtained [1]	Particle diameter of Preparation obtained [2]	Particle diameter of Preparation obtained (compound/PEG-DMPE Na/DSPC/cholesterol=7.030/0.755/2.038/4.892 mmol/L, Example 54)	SMILES
139.2 nm	93.4 nm		CCCCC/C=C\C/C=C\CCCCCCCCN(CCCCCCCC/C=C\C/C=C\CCCCC)C(=O)OCCN(C)C [Compound A-5, 2-(Dimethylamino)ethyl di((9Z,12Z)-octadeca-9,12-dienyl)carbamate]
132.0 nm	111.3 nm		CCCCC/C=C\C/C=C\CCCCCCCCN(CCCCCCCC/C=C\C/C=C\CCCCC)C(=O)OCCCN1CCCCCCC1 [Compound A-28]
135.0 nm	103.1 nm		CCCCC/C=C\C/C=C\CCCCCCCCN(CCCCCCCC/C=C\C/C=C\CCCCC)C(=O)OCCCCN(C)C [Compound A-13, 4-(Dimethylamino)butyl di((9Z,12Z)-octadeca-9,12-dienyl)carbamate]
134.9 nm	96.4 nm		CCCCC/C=C\C/C=C\CCCCCCCCN(CCCCO)CCCCCCCC/C=C\C/C=C\CCCCC [Compound C-5, 4-(Di((9Z,12Z)-octadeca-9,12-dienyl)amino)butan-1-ol]
	93.6 nm		CCCCC/C=C\C/C=C\CCCCCCCCN(CCCCCCCC/C=C\C/C=C\CCCCC)C(=O)OCCC1CCCN1C (centres unmarked) [Compound A-6, 2-(1-Methylpyrrolidin-2-yl)ethyl di((9Z,12Z)-octadeca-9,12-dienyl)carbamate]
	116.2 nm		CCCCC/C=C\C/C=C\CCCCCCCCOCC(CN(C)C(=O)OCCCN(C)C)OCCCCCCCC/C=C\C/C=C\CCCCC (centres unmarked) [Compound XI-9, 3-(Dimethylamino)propyl 2,3-bis((9Z,12Z)-octadeca-9,12-dienyloxy)propyl(methyl)carbamate, reference compound]
160.6 nm			CCCCC/C=C\C/C=C\CCCCCCCCNCCCCCCCC/C=C\C/C=C\CCCCC [Compound B-1, Di((9Z,12Z)-octadeca-9,12-dienyl)amine]
153.4 nm			CCCCC/C=C\C/C=C\CCCCCCCCN(CCCCCCCC)C(=O)OCCCN(C)C [Compound A-11, 3-(Dimethylamino)propyl ((9Z,12Z)-octadeca-9,12-dienyl)(octyl)carbamate]
133.0 nm	111.5 nm		CCCCC/C=C\C/C=C\CCCCCCCCOCCN(CCCCCCCC/C=C\C/C=C\CCCCC)C(=O)OCCCN(C)C [Compound A-12, 3-(Dimethylamino)propyl ((9Z,12Z)-octadeca-9,12-dienyl)(2-((9Z,12Z)-octadeca-9,12-dienyloxy)ethyl)carbamate]
130.6 nm	103.4 nm		CCCCC/C=C\C/C=C\CCCCCCCCOCCN(CCCCCCCC/C=C\C/C=C\CCCCC)C(=O)OCCCN1CCCCC1 [Compound A-29, 3-(Piperidin-1-yl)propyl ((9Z,12Z)-octadeca-9,12-dienyl)(2-((9Z,12Z)-octadeca-9,12-dienyloxy)ethyl)carbamate]
134.4 nm	99.7 nm		CCCCC/C=C\C/C=C\CCCCCCCCN(CCCCCCCC/C=C\C/C=C\CCCCC)C(=O)OCC1CCN(C)CC1 [Compound A-14, (1-Methylpiperidin-4-yl)methyl di((9Z,12Z)-octadeca-9,12-dien-1-yl)carbamate]
126.5 nm	127.2 nm		CCCCC/C=C\C/C=C\CCCCCCCCN(CCOCCCCCCCC/C=C\CCCCCC)C(=O)OCCCN(C)C [Compound A-36, 3-(Dimethylamino)propyl (2-((Z)-hexadec-9-enyloxy)ethyl)((9Z,12Z)-octadeca-9,12-dienyl)carbamate]
137.3 nm	98.8 nm		CCCCC/C=C\C/C=C\CCCCCCCCN(CCO)CCCCCCCC/C=C\C/C=C\CCCCC [Compound C-4, 2-(Di((9Z,12Z)-octadeca-9,12-dienyl)amino)ethanol]
138.4 nm	94.1 nm		CCCCC/C=C\C/C=C\CCCCCCCCCCN(CCCO)CCCCCCCCCC/C=C\C/C=C\CCCCC [Compound C-3, 3-(Di((11Z,14Z)-icosa-11,14-dienyl)amino)propan-1-ol]
129.1 nm	101.4 nm		CCCCCCCC/C=C\CCCCCCCCN(CCCCCCCC/C=C\CCCCCCCC)C(=O)OCCC1CCCN1C (centres unmarked) [Compound A-17, 2-(1-Methylpyrrolidin-2-yl)ethyl di((Z)-octadec-9-enyl)carbamate]
137.8 nm	115.4 nm		CCCCC/C=C\C/C=C\CCCCCCCCN(CCOCCCCCCCC/C=C\CCCCCCCC)C(=O)OCCCN(C)C [Compound A-35, 3-(Dimethylamino)propyl (2-((Z)-octadec-9-enyloxy)ethyl)((9Z,12Z)-octadeca-9,12-dienyl)carbamate]
124.3 nm	88.3 nm		CCCCC/C=C\C/C=C\CCCCCCCCN(CCCO)CCCCCCCC/C=C\C/C=C\CCCCC [Compound C-1, 3-(Di((9Z,12Z)-octadeca-9,12-dienyl)amino)propan-1-ol]
138.4 nm	112.0 nm		CCCCCCCC/C=C\CCCCCCCCN(CCCCCCCC/C=C\CCCCCCCC)C(=O)OCC1CCCN(C)C1 (centres unmarked) [Compound A-18, (1-Methylpiperidin-3-yl)methyl di((Z)-octadec-9-enyl)carbamate]
114.1 nm			CCCCC/C=C\C/C=C\CCCCCCCCOCCN(CCOCCCCCCCC/C=C\C/C=C\CCCCC)C(=O)OCCCN(C)C [Compound XI-5, 3-(Dimethylamino)propyl bis(2-((9Z,12Z)-octadeca-9,12-dienyloxy)ethyl)carbamate, reference compound]
133.4 nm	105.5 nm		CCCCC/C=C\C/C=C\CCCCCCCCN(CCCCCCCC/C=C\C/C=C\CCCCC)C(=O)OCC1CCCCN1C (centres unmarked) [Compound A-16, (1-Methylpiperidin-2-yl)methyl di((9Z,12Z)-octadeca-9,12-dien-1-yl)carbamate]
125.4 nm	91.9 nm		CCCCCCCC/C=C\CCCCCCCCN(CCCO)CCCCCCCC/C=C\CCCCCCCC [Compound C-2, 3-(Di((Z)-octadec-9-enyl)amino)propan-1-ol]
140.0 nm	91.4 nm		CCCCC/C=C\C/C=C\CCCCCCCCCCN(CCCCCCCCCC/C=C\C/C=C\CCCCC)C(=O)OCCC1CCCN1C (centres unmarked) [Compound A-19, 2-(1-Methylpyrrolidin-2-yl)ethyl di((11Z,14Z)-icosa-11,14-dienyl)carbamate]
142.8 nm			CCCCC/C=C\C/C=C\CCCCCCCCN(CCCCCCCC/C=C\C/C=C\CCCCC)CC(O)CO (centres unmarked) [Compound XI-7, 3-(Di((9Z,12Z)-octadeca-9,12-dienyl)amino)propane-1,2-diol, reference compound]
124.6 nm	101.4 nm		CCCCC/C=C\C/C=C\CCCCCCCCOCCN(CCCCCCCC/C=C\C/C=C\CCCCC)C(=O)OCC1CCCN(C)C1 (centres unmarked) [Compound A-32, (1-Methylpiperidin-3-yl)methyl ((9Z,12Z)-octadeca-9,12-dienyl)(2-((Z,12Z)-octadeca-9,12-dienyloxy)ethyl)carbamate]
116.4 nm			CCCCC/C=C\C/C=C\CCCCCCCCN(CCCCCCCCCCCC)C(=O)OCCCN(C)C [Compound A-9, 3-(Dimethylamino)propyl dodecyl((9Z,12Z)-octadeca-9,12-dienyl) carbamate]
130.4 nm	106.2 nm		CCCCC/C=C\C/C=C\CCCCCCCCOCCN(CCCCCCCC/C=C\C/C=C\CCCCC)C(=O)OCCC1CCCN1C (centres unmarked) [Compound A-30]
	95.9 nm	113.0 nm	CCCCC/C=C\C/C=C\CCCCCCCCN(CCCCCCCC/C=C\C/C=C\CCCCC)C(=O)OCCCN(C)C [Compound A-1, 3-(Dimethylamino) propyl di((9Z,12Z)-octadeca-9,12-dienyl)carbamate]
140.2 nm	92.6 nm		CCCCC/C=C\C/C=C\CCCCCCCCN(CCOCCCCCCCC/C=C\CCCCCCCC)C(=O)OCCC1CCCN1C (centres unmarked) [Compound A-34, 2-(1-Methylpyrrolidin-2-yl)ethyl (2-((Z)-octadec-9-enyloxy)ethyl)((9Z,12Z)-octadeca-9,12-dienyl)carbamate]
145.1 nm	95.7 nm		CCCCC/C=C\C/C=C\CCCCCCCCCCN(CCCCCCCCCC/C=C\C/C=C\CCCCC)C(=O)OCC1CCCN(C)C1 (centres unmarked) [Compound A-20, (1-Methylpiperidin-3-yl)methyl di((11Z,14Z)-icosa-11,14-dienyl)carbamate]
124.0 nm	98.4 nm		CCCCC/C=C\C/C=C\CCCCCCCCN(CCCCCCCC/C=C\C/C=C\CCCCC)C(=O)OCC1CCCN(C)C1 (centres unmarked) [Compound A-15]
